Active and inactive are the calls of the source. The rule behind the calls is not given here.
Tested on: M. tuberculosis H37Rv growth inhibition with meropenem
Assay: dose response, H37Rv, with and without meropenem (AID 434987);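 note: growth over 7 days at 37 °C before Alamar Blue read on day 9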
[1] = M. tuberculosis H37Rv growth inhibition, measured here: IC50 without meropenem
[2] = M. tuberculosis H37Rv growth inhibition, measured here: IC90 without meropenem
[3] = measured here: IC90 with meropenem

Compound	IC50	IC50 [1]	IC90 [2]	IC90 [3]
S=C(Nc1ccccc1)Nc1ccc(Cl)cn1	4.68 µM	90.6 µM	> 100 µM	> 100 µM
CCOC(=O)c1sc(NC(=O)Nc2ccc(Cl)cc2)cc1C	> 100 µM (inactive)	> 100 µM	> 100 µM	> 100 µM
O=C(Cc1cccc2ccccc12)N/N=C/c1ccc(O)c([N+](=O)[O-])c1	17.3 µM (inactive)	27.2 µM	47.2 µM	31.6 µM
N#C/C(=C(/O)COC(=O)CCc1ccc(S(=O)(=O)N2CCOCC2)cc1)c1nc2ccccc2[nH]1	46.4 µM (inactive)	> 100 µM	> 100 µM	> 100 µM
O=c1c2c(nc3n1CCCCC3)sc1c(O)c(Br)ccc12	48 µM (inactive)	> 100 µM	> 100 µM	> 50 µM
Cc1ccc(C2=N/C(=C\c3cccc(F)c3)C(=O)O2)cc1	1.49 µM	7.03 µM	79.6 µM	4.02 µM
Cc1nnc(SCc2cccc(Cl)c2)n(N)c1=O	4.43 µM	12 µM	18.1 µM	10.1 µM
OCCCn1c(C2CCCN2c2nc(-c3ccc(Cl)cc3)cs2)nc2cc(Cl)c(Cl)cc21 (configuration not stated)	> 100 µM (inactive)	> 100 µM	> 100 µM	> 100 µM
COc1ccccc1NC(=O)Nc1nn(C)c2cccc(OC)c12	4.18 µM	21.1 µM	> 100 µM	> 100 µM
COc1ccc(/C=N\NC(=O)c2sc(N)nc2C)cc1OC	> 100 µM (inactive)	> 100 µM	> 100 µM	> 100 µM
O=C(Nc1cccc(S(=O)(=O)NCc2ccco2)c1)c1cc(-c2ccc(F)cc2)nc2ccccc12	97.4 µM (inactive)	> 100 µM	> 100 µM	> 100 µM
Clc1ccc(CSc2ccc(-c3cccnc3)nn2)cc1	40.1 µM	> 100 µM	> 100 µM	> 100 µM
Cc1cc(=O)[nH]c(N/N=C/c2c(O)n(-c3ccccc3)c(=O)c3ccccc23)n1	1.87 µM	7.61 µM	> 100 µM	13.6 µM
FC(F)Oc1ccccc1C1CC(c2ccc(Br)s2)Nc2ncnn21 (configuration not stated)	> 100 µM (inactive)	> 100 µM	> 100 µM	> 100 µM
COc1ccc(-c2sc3cc(OC)c(OC)cc3c2C#CCCO)cc1	> 100 µM (inactive)	> 50 µM	> 50 µM	> 100 µM
CC(=O)c1c(C)[nH]c(C(=O)OCC(=O)Nc2nnc(-c3ccccc3)o2)c1C	4.19 µM	> 100 µM	> 100 µM	> 100 µM
NC(=O)CC(NC(=O)Cc1ccc(Br)cc1)c1ccc(NC2CCCCCC2)c([N+](=O)[O-])c1 (configuration not stated)	72.9 µM (inactive)	> 100 µM	> 100 µM	> 100 µM
CC(OC(=O)c1ccc([N+](=O)[O-])o1)C(=O)NC1CCCCC1C (configuration not stated)	15.6 µM (inactive)	26.3 µM	70.6 µM	> 100 µM
COc1ccc2c(C)nc(Nc3nc(-c4ccccc4)cc(=O)[nH]3)nc2c1	> 100 µM (inactive)	> 100 µM	> 100 µM	> 100 µM
COc1ccc(-c2nn(-c3ccccc3)cc2C(=O)Nc2nccs2)cc1OC	> 100 µM (inactive)	> 100 µM	> 100 µM	> 100 µM

Compound	IC50	IC50 [1]	IC90 [2]	IC90 [3]
O=C(Nc1nnc(-c2ccccc2SCc2ccccc2F)s1)Nc1ccccc1F	> 100 µM (inactive)	> 100 µM	> 100 µM	> 100 µM
Cc1cc(Br)ccc1NC(=O)c1ccccc1-c1ccccc1	14.1 µM	> 100 µM	> 100 µM	> 100 µM
Cc1ccc(C(=O)OCCN2CCN(c3ncc(C(F)(F)F)cc3Cl)CC2)cc1	> 100 µM (inactive)	> 100 µM	> 100 µM	> 100 µM
Cc1nn(-c2ccccc2)c(N2CCCC2)c1/C=C1\N=C(c2ccc(F)cc2)OC1=O	10.7 µM (inactive)	23.4 µM	26.8 µM	22.9 µM
Cc1ccc(C)c(N2CCN(C3CCCC(C)C3)CC2)c1 (configuration not stated)	37.9 µM (inactive)	48.7 µM	> 100 µM	48.2 µM
CC(=O)c1ccc(OCCCC(=O)OCC(=O)N2CCN(c3ccccc3)CC2)cc1	78.7 µM (inactive)	> 100 µM	> 100 µM	> 100 µM
COc1ccc2ccccc2c1/C=N/NC(=O)c1cccc(C)c1	64.9 µM (inactive)	> 100 µM	> 100 µM	> 100 µM
CC1CC(C)(C)n2c(O)c(N=NC(N)=S)c3cccc1c32 (configuration not stated)	> 100 µM (inactive)	> 100 µM	> 100 µM	> 100 µM
C=CCn1cc(C(=O)NCCCOC)c(=O)c2cc(S(=O)(=O)N(CC)CC)ccc21	99.9 µM (inactive)	> 100 µM	> 100 µM	> 100 µM
Cc1ccn2c(CNCCn3nc(C)cc3C)c(C(=O)N3CCCCCC3)nc2c1	> 100 µM (inactive)	> 100 µM	> 100 µM	> 100 µM
CCOC(=O)Cn1c(=NC(=O)C2CC2)sc2c(C)cc(C)cc21	9.84 µM	> 100 µM	> 100 µM	> 100 µM
Cn1cc(C(=O)N/N=C/C(Br)=C\c2ccccc2)ccc1=O	> 100 µM (inactive)	> 100 µM	> 100 µM	> 100 µM
Cc1cc(NC(=O)CSc2nc(C(C)C)nc3sc4c(c23)CCCC4)no1	> 100 µM (inactive)	> 100 µM	> 100 µM	> 100 µM
Nc1cc(=O)nc(SCc2ccccc2)n1Cc1ccco1	87.3 µM (inactive)	> 100 µM	> 100 µM	> 100 µM
O=C(CCS(=O)(=O)c1ccccc1)N(CCCN1CCOCC1)c1nc2c(F)cccc2s1	11.3 µM	> 100 µM	> 100 µM	> 25 µM
Cc1nc(SCC(=O)NCc2ccco2)c2c3c(sc2n1)CCCC3	> 100 µM (inactive)	> 100 µM	> 100 µM	> 100 µM
N#Cc1c(-c2cccs2)cc(-c2ccccn2)nc1N	6.92 µM	> 100 µM	> 100 µM	> 100 µM
Cc1cc(/C=N/NC(=O)CC#N)c(C)n1-c1ccc([N+](=O)[O-])cc1	10.2 µM	> 100 µM	> 100 µM	> 100 µM
COc1ccc(/C(O)=C/C(=O)C(=O)NNC(=O)C(O)(c2ccccc2)c2ccccc2)cc1	> 100 µM (inactive)	> 100 µM	> 100 µM	> 100 µM
C/C(CC(=O)Nc1c(C)cc(C)cc1C)=N\NC(=O)c1cnccn1	5.21 µM	28.7 µM	58.5 µM	17.4 µM

Compound	IC50	IC50 [1]	IC90 [2]	IC90 [3]
Cc1ccc(C2=NN3C(=O)c4ccccc4C3C2)cc1 (configuration not stated)	11.1 µM	49 µM	> 100 µM	35.1 µM
CSc1nnc(-c2ccc(NC(N)=S)cc2)o1	12.2 µM	> 100 µM	> 100 µM	> 100 µM
CCOC(=O)N1CCC(N2CCN(S(=O)(=O)c3ccc(Cl)cc3)CC2)CC1	> 100 µM (inactive)	> 100 µM	> 100 µM	> 100 µM
CCC(CC)NC(=O)CON=C1c2ccccc2-c2ccccc21	> 100 µM (inactive)	> 100 µM	> 100 µM	> 100 µM
O=C(COC(=O)C1CC1)c1c[nH]c2ccccc12	0.999 µM	> 100 µM	> 100 µM	> 100 µM
COCCCNc1nc(SCc2ccccc2)nc2sc3c(c12)CCC3	97.3 µM (inactive)	> 100 µM	> 100 µM	> 100 µM
COc1ccc(Cn2c(C)nc3c(c(=O)c4ccccc4n3C)c2=O)cc1	> 100 µM (inactive)	> 100 µM	> 100 µM	> 100 µM
O=C(NNC(=O)c1cc(OCC(F)(F)F)ccc1OCC(F)(F)F)c1cccc(C(F)(F)F)c1	> 100 µM (inactive)	> 100 µM	> 100 µM	> 100 µM
Cn1c(=O)c2ccccc2n2c(CCl)nnc12	1.22 µM	3.19 µM	> 100 µM	4.65 µM
CCOc1cccc(/C=N/Nc2nc(N3CCCC3)nc(N3CCCC3)n2)c1O	90.8 µM (inactive)	> 100 µM	> 100 µM	> 100 µM
Cc1ccc(NC(=O)/C=C\C(=O)O)c([N+](=O)[O-])c1	56.7 µM (inactive)	95.7 µM	> 100 µM	> 100 µM
O=C(CNC(=O)c1ccc(Br)cc1)NCC(=O)OCc1ccc(Cl)cc1	12.4 µM	56.9 µM	> 100 µM	> 100 µM
CCOc1nnnc2c1sc1nc(N3CCOCC3)c3c(c12)CCCC3	> 100 µM (inactive)	> 100 µM	> 100 µM	> 100 µM
CCOc1ccc(N=c2cc(-c3ccc(OC)cc3)oc3ccccc23)cc1	45.2 µM (inactive)	40.1 µM	44.4 µM	50.3 µM
CCOC(=O)C1=C(C)N=c2s/c(=C\c3ccncc3)c(=O)n2C1c1ccc2c(c1)OCO2 (configuration not stated)	69.7 µM (inactive)	95.7 µM	> 100 µM	> 100 µM
CCOc1cc(/C=N/Nc2nc(-c3cccs3)c(NC(C)=O)s2)ccc1O	42.4 µM (inactive)	> 100 µM	> 100 µM	> 100 µM
CCc1nnc(NC(=O)c2ccc3nc(CC)c(CC)nc3c2)s1	46.6 µM (inactive)	> 100 µM	> 100 µM	> 100 µM
Cc1cc2c(=O)oc(-c3ccc(Br)cc3)nc2s1	> 100 µM (inactive)	> 100 µM	> 100 µM	> 100 µM

From PubChem BioAssay AID434987 (Southern Research Specialized Biocontainment Screening …, 2010)
